The conditions of series [1]: Example 1 formulation; throughout the 18 month stability interval. The method, then: (§1) Three batches of the exemplary formulation detailed in Example 1 were manufactured (referred to herein as Batches A, B, and C) and packaged in two different sizes of amber glass bottles (120 mL and 15 mL).
For series [2] the following is noted: cited from earlier work.
Series [3] is described as follows: Desloratadine stability (assay, regression analysis). The series is classed as physicochemical. As to conditions: Example 1 formulation, regression analysis of data through 18 months. The method, then:
Data obtained through 18 months at 25° C./60% RH and 30° C./65% RH were evaluated by regression analysis in order to determine a suitable shelf life (see FIGS. 2A and 2B).

A further series can be described thus: Sodium benzoate assay. The series is classed as physicochemical. As to conditions: Example 1 formulation; throughout the 18 month stability interval. How it is done:
as §1

Like-named read-outs stand apart in the source and are kept apart here.

On to `O=C([O-])CN(CCN(CC(=O)[O-])CC(=O)O)CC(=O)O.[Na+].[Na+]` [EDTA, Edetate Disodium], for which, in series [1], the EDTA assay trend result is recorded as “no degradation trend”.

Take `Clc1ccc2c(c1)CCc1cccnc1C2=C1CCNCC1` [Desloratadine, 8-chloro-6,11-dihydro-11-(4-piperidinylidene)-5H-benzo[5,6]cyclohepta[1,2-b]pyridine]: the solubility entry in series [2] (in ethanol) was “very soluble”; in series [2] (in propylene glycol), “very soluble”; in series [2] (in water), “slightly soluble”. Besides, the “predicted desloratadine assay value over a 24 month shelf life” value in series [3] (stored at 25° C./60% RH) is reported as 100.9%; in series [3] (stored at 30° C./65% RH), 98.9%.

Consider `O=C([O-])c1ccccc1.[Na+]` [sodium benzoate], for which the “sodium benzoate assay trend” value in “Sodium benzoate assay” was “no degradation trend”.

The values above are taken from US20080262017A1, “Sugar-Free Storage-Stable Antihistaminic Syrups” (priority 2006, published 2008).
